Results: patent US11661431B2, “Thienopyrrole compounds” (Gilead Sciences, Inc., priority 2021, dated 2023)

Assays:
TLR7 = TLR7 (Homo sapiens (Human), UniProt Q9NYK1); assay: TLR7 human peripheral blood mononuclear cell (PBMC) cell-based assay (GS-986 as agonist; IL-6 and IFNα readout); details: human PBMCs, TLR7 agonist GS-986 at 400 nM, 6 hours, antagonist potency; read-out: TLR-7 EC50
Procedure: Human peripheral blood mononuclear cells (PBMCs) consist of lymphocytes, monocytes and dendritic cells that express TLR7, TLR8 and TLR9. These cells respond to TLR7, TLR8 and TLR9 ligand stimulation and produce cytokines and chemokines in vitro and in vivo. Human PBMCs are therefore suitable to be used in a cell-based assay to assess the in vitro potency of a TLR 7, 8, and/or 9 antagonist.
After counting, the cell density was adjusted to 2 million cells/ml and incubated for 1 hour at 37° C., 5% CO2 for recovery. Following the recovery, the cells were plated by adding 50 μl per well (100,000 cells) to 384-well cell culture plates (Greiner) containing 250 nl of test antagonists in 100% DMSO per well, in a 10 points dose response in quadruplicates. PBMCs were incubated in the presence of test antagonists for one hour at 37° C., 5% CO2 before being stimulated with a TLR7 or TLR9agonist. […] PBMCs were incubated in the presence of the test antagonist and the TLR7 (or TLR9) agonist for an additional 6 hours at 37° C., 5% CO2. At the end of the incubation, the cell culture plates were centrifuged at 500 g for 5 min, and the cell culture supernatant was collected. The level of cytokines (IL-6 and IFNα) in the supernatant was measured by electrochemiluminescence immunoassays (Mesoscale Discovery) following manufacturer's recommended protocols.

TLR8 = TLR8 (Homo sapiens (Human), UniProt Q9NR97); assay: TLR8 human peripheral blood mononuclear cell (PBMC) cell-based assay (Compound A as agonist; TNFα and IL12p40 readout); details: human PBMCs, TLR8 agonist Compound A at 800 nM, 6 hours, antagonist potency; read-out: TLR-8 EC50
Chain of TLR8 (Q9NR97 27-1041): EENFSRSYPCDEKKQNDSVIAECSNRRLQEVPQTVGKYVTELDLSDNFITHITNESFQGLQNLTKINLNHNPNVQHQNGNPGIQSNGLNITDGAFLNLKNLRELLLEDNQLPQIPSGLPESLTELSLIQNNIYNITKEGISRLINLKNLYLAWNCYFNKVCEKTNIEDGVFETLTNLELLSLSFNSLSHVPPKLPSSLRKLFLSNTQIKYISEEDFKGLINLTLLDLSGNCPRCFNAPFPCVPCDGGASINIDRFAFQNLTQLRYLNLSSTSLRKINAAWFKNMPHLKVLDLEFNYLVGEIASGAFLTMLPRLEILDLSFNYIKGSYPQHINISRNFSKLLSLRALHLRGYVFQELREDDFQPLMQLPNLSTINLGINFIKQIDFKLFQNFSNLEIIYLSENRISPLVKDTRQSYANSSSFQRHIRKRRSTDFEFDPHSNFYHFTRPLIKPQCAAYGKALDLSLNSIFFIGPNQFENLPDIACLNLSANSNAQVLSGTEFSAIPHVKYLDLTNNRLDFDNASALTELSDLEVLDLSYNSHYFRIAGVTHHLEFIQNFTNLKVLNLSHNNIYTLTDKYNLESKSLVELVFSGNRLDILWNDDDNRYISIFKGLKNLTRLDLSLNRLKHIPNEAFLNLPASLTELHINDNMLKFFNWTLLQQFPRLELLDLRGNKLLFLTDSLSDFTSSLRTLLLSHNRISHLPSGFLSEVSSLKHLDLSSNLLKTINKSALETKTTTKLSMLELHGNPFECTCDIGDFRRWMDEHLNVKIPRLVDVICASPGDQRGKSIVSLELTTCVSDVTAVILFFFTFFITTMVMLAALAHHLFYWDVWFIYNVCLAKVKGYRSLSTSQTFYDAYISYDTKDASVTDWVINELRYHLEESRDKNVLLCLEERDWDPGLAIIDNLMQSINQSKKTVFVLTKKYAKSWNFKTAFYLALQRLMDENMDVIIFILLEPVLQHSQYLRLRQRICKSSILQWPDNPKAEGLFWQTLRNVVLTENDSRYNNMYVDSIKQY
Procedure: After counting, the cell density was adjusted to 2 million cells/ml and incubated for 1 hour at 37° C., 5% CO2 for recovery. Following the recovery, the cells were plated by adding 50 μl per well (100,000 cells) to 384-well cell culture plates (Greiner) containing 250 nl of test antagonists in 100% DMSO per well, in a 10 points dose response in quadruplicates. PBMCs were incubated in the presence of antagonists for one hour at 37° C., 5% CO2 before being stimulated with TLR8 agonist. […] PBMCs were incubated in the presence of antagonist and the TLR8 agonist for an additional 6 hours at 37° C., 5% CO2. At the end of the incubation, the cell culture plates were centrifuged at 500 g for 5 min, and the cell culture supernatant was collected. The level of cytokines (TNFα and IL12p40) in the supernatant was measured by electrochemiluminescence immunoassays (Mesoscale Discovery) following manufacturer's recommended protocols.

Chain of TLR7 (Q9NYK1 27-1049): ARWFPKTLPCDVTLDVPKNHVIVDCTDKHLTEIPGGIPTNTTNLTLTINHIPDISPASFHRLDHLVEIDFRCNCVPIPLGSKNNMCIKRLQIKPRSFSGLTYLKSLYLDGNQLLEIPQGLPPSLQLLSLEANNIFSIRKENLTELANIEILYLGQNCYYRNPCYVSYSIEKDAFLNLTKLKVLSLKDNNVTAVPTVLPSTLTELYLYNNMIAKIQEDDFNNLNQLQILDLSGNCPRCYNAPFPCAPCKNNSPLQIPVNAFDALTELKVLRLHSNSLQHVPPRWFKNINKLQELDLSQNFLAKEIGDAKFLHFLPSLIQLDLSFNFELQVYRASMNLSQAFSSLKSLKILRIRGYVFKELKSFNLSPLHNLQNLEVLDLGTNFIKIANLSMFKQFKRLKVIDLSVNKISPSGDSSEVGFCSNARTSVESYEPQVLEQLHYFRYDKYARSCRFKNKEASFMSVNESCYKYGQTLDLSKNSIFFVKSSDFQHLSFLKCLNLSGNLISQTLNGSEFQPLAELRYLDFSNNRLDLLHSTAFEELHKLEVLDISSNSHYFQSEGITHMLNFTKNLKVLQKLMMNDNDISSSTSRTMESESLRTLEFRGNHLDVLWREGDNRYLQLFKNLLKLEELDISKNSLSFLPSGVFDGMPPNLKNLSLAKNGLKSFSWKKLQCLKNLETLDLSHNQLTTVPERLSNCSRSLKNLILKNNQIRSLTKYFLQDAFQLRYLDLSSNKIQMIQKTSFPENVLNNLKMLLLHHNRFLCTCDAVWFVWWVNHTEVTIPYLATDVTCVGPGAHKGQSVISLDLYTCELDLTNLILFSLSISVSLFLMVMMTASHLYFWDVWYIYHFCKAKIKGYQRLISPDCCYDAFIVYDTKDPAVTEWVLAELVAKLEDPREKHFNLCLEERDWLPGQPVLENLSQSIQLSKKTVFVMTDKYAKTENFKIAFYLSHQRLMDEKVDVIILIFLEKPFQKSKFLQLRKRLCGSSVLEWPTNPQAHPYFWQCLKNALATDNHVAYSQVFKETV

SMILES | EC50 (TLR7) | EC50 (TLR8)
Cc1c(-c2[nH]c3sc(C4CC(n5cc(C6COCCN6)nn5)C4)c(C)c3c2C(C)C)cn2ncnc2c1C (single isomer, unassigned) [Example 245, 3-(1-(3-(5-(7,8-dimethyl-[1,2,4]triazolo[1,5-a]pyridin-6-yl)-4-isopropyl-3-methyl-6H-thieno[2,3-b]pyrrol-2-yl)cyclobutyl)-1H-1,2,3-triazol-4-yl)morpholine] | 0.17 nM | 3.33 nM
Cc1c(C2CCCN(CC(N)=O)CC2)sc2[nH]c(-c3cc(C)c4ncnn4c3)c(C(C)C)c12 (single isomer, unassigned) [Example 262, 2-(4-(4-isopropyl-3-methyl-5-(8-methyl-[1,2,4]triazolo[1,5-a]pyridin-6-yl)-6H-thieno[2,3-b]pyrrol-2-yl)azepan-1-yl)acetamide] | < 0.05 nM | 4.54 nM
Cc1c(C2CCCN(CC(N)=O)CC2)sc2[nH]c(-c3cc(C)c4ncnn4c3)c(C(C)C)c12 (single isomer, unassigned) [Example 263, 2-(4-(4-isopropyl-3-methyl-5-(8-methyl-[1,2,4]triazolo[1,5-a]pyridin-6-yl)-6H-thieno[2,3-b]pyrrol-2-yl)azepan-1-yl)acetamide] | 1.17 nM | 18.6 nM
Cc1c(-c2[nH]c3sc(C4CCN(C5CCNC5=O)CC4)c(C)c3c2C(C)C)cn2ncnc2c1C (single isomer, unassigned) [Example 290, 3-[4-[5-(7,8-dimethyl-[1,2,4]triazolo[1,5-a]pyridin-6-yl)-4-isopropyl-3-methyl-6H-thieno[2,3-b]pyrrol-2-yl]-1-piperidyl]pyrrolidin-2-one] | 0.65 nM | 19.3 nM
Cc1c(-c2[nH]c3sc(C4CCN(C5CCNC5=O)CC4)c(C)c3c2C(C)C)cn2ncnc2c1C (single isomer, unassigned) [Example 291, 3-[4-[5-(7,8-dimethyl-[1,2,4]triazolo[1,5-a]pyridin-6-yl)-4-isopropyl-3-methyl-6H-thieno[2,3-b]pyrrol-2-yl]-1-piperidyl]pyrrolidin-2-one] | 0.6 nM | 22.2 nM
Cc1c(-c2[nH]c3sc(C4CCC5(CC4)CNCCO5)c(C)c3c2C(C)C)cn2ncnc2c1C (single isomer, unassigned) [Example 292, 9-(5-(7,8-dimethyl-[1,2,4]triazolo[1,5-a]pyridin-6-yl)-4-isopropyl-3-methyl-6H-thieno[2,3-b]pyrrol-2-yl)-1-oxa-4-azaspiro[5.5]undecane] | 0.09 nM | 3.91 nM
Cc1c(-c2[nH]c3sc(C4CCC5(CC4)CNCCO5)c(C)c3c2C(C)C)cn2ncnc2c1C (single isomer, unassigned) [Example 293, 9-(5-(7,8-dimethyl-[1,2,4]triazolo[1,5-a]pyridin-6-yl)-4 isopropyl-3-methyl-6H-thieno[2,3-b]pyrrol-2-yl)-1-oxa-4-azaspiro[5.5]undecane] | 1.67 nM | 20.5 nM
Cc1c(-c2[nH]c3sc(C4CCC(N5CC6(CCNC6=O)C5)CC4)c(C)c3c2C(C)C)cn2ncnc2c1C (single isomer, unassigned) [Example 305, 2-[4-[5-(7,8-dimethyl-[1,2,4]triazolo[1,5-a]pyridin-6-yl)-4-isopropyl-3-methyl-6H-thieno[2,3-b]pyrrol-2-yl]cyclohexyl]-2,6-diazaspiro[3.4]octan-5-one] | 0.78 nM | 4.44 nM
Cc1c(-c2[nH]c3sc(C4CCC(N5CC6(CCNC6=O)C5)CC4)c(C)c3c2C(C)C)cn2ncnc2c1C (single isomer, unassigned) [Example 306, 2-[4-[5-(7,8-dimethyl-[1,2,4]triazolo[1,5-a]pyridin-6-yl)-4-isopropyl-3-methyl-6H-thieno[2,3-b]pyrrol-2-yl]cyclohexyl]-2,6-diazaspiro[3.4]octan-5-one] | < 0.05 nM | 0.49 nM
Cc1c(-c2[nH]c3sc(C4CC5(CCN(CCS(C)(=O)=O)C5)C4)c(C)c3c2C(C)C)cn2ncnc2c1C (single isomer, unassigned) [Example 313, 5-(7,8-dimethyl-[1,2,4]triazolo[1,5-a]pyridin-6-yl)-4-isopropyl-3-methyl-2-(6-(2-(methylsulfonyl)ethyl)-6-azaspiro[3.4]octan-2-yl)-6H-thieno[2,3-b]pyrrole] | 2.51 nM | 1.19 nM
Cc1c(-c2[nH]c3sc(C4CC5(CCN(CCS(C)(=O)=O)C5)C4)c(C)c3c2C(C)C)cn2ncnc2c1C (single isomer, unassigned) [Example 314, 5-(7,8-dimethyl-[1,2,4]triazolo[1,5-a]pyridin-6-yl)-4-isopropyl-3-methyl-2-(6-(2-(methylsulfonyl)ethyl)-6-azaspiro[3.4]octan-2-yl)-6H-thieno[2,3-b]pyrrole] | 10 nM | 1.22 nM
Cc1c(-c2[nH]c3sc(C4CCC45CN(CC(N)=O)C5)c(C)c3c2C(C)C)cn2ncnc2c1C (single isomer, unassigned) [Example 315, 2-(5-(5-(7,8-dimethyl-[1,2,4]triazolo[1,5-a]pyridin-6-yl)-4 isopropyl-3-methyl-6H-thieno[2,3-b]pyrrol-2-yl)-2-azaspiro[3.3]heptan-2-yl)acetamide] | 28.2 nM | 32.4 nM
Cc1c(-c2[nH]c3sc(C4CCC45CN(CC(N)=O)C5)c(C)c3c2C(C)C)cn2ncnc2c1C (single isomer, unassigned) [Example 316, 2-(5-(5-(7,8-dimethyl-[1,2,4]triazolo[1,5-a]pyridin-6-yl)-4-isopropyl-3-methyl-6H-thieno[2,3-b]pyrrol-2-yl)-2-azaspiro[3.3]heptan-2-yl)acetamide] | 47.3 nM | 108 nM
Cc1cc(-c2[nH]c3sc(C(=O)N(C)C4CCNCC4)cc3c2C(C)C)cn2ncnc12 [Example 1, 4-isopropyl-N-methyl-5-(8-methyl-[1,2,4]triazolo[1,5-a]pyridin-6-yl)-N-(piperidin-4-yl)-6H-thieno[2,3-b]pyrrole-2-carboxamide] | 0.56 nM | 8.93 nM
Cc1cc(-c2[nH]c3sc(C(=O)N4CCNCC4)cc3c2C(C)C)cn2ncnc12 [Example 2] | 1.04 nM | 5.79 nM
Cc1cc(-c2[nH]c3sc(C(=O)N(C)[C@H]4CCNC4)cc3c2C(C)C)cn2ncnc12 [Example 3] | 0.27 nM | 9.95 nM
Cc1cc(-c2[nH]c3sc(C(=O)N(C)C4CCN(CCO)CC4)cc3c2C(C)C)cn2ncnc12 [Example 5] | 0.5 nM | 5.96 nM
Cc1cc(-c2[nH]c3sc(S(=O)(=O)N4CCNCC4)cc3c2C(C)C)cn2ncnc12 [Example 6, 4-Isopropyl-5-(8-methyl-[1,2,4]triazolo[1,5-a]pyridin-6-yl)-2-(piperazin-1-ylsulfonyl)-6H-thieno[2,3-b]pyrrole] | 21.5 nM | 84.6 nM
Cc1c(C(=O)N(C)C2CCN(CCO)CC2)sc2[nH]c(-c3cc(C)c4ncnn4c3)c(C(C)C)c12 [Example 7, N-(1-(2-hydroxyethyl)piperidin-4-yl)-4-isopropyl-N,3-dimethyl-5-(8-methyl-[1,2,4]triazolo[1,5-a]pyridin-6-yl)-6H-thieno[2,3-b]pyrrole-2-carboxamide] | 0.14 nM | 3.71 nM
Cc1c(C2CCNCC2)sc2[nH]c(-c3cc(C)c4ncnn4c3)c(C(C)C)c12 [Example 8, 4-Isopropyl-3-methyl-5-(8-methyl-[1,2,4]triazolo[1,5-a]pyridin-6-yl)-2-(piperidin-4-yl)-6H-thieno[2,3-b]pyrrole] | 0.08 nM | 4.92 nM
Cc1c(C2CCN(CC(N)=O)CC2)sc2[nH]c(-c3cc(C)c4ncnn4c3)c(C(C)C)c12 [Example 9, 2-(4-(4-isopropyl-3-methyl-5-(8-methyl-[1,2,4]triazolo[1,5-a]pyridin-6-yl)-6H-thieno[2,3-b]pyrrol-2-yl)piperidin-1-yl)acetamide] | 0.64 nM | 17.1 nM
Cc1c(C2CCN(C(=O)CN(C)C)CC2)sc2[nH]c(-c3cc(C)c4ncnn4c3)c(C(C)C)c12 [Example 10, 2-(dimethylamino)-1-(4-(4-isopropyl-3-methyl-5-(8-methyl-[1,2,4]triazolo[1,5-a]pyridin-6-yl)-6H-thieno[2,3-b]pyrrol-2-yl)piperidin-1-yl)ethan-1-one] | 0.18 nM | 9.29 nM
Cc1c(C2CCN(CC3(C)COC3)CC2)sc2[nH]c(-c3cc(C)c4ncnn4c3)c(C(C)C)c12 [Example 11] | 2.47 nM | 14.3 nM
